Results as given in PMC8242589, “Cardiac Safety of Kinase Inhibitors – Improving Understanding and Prediction of Liabilities in Drug Discovery Using Human Stem Cell-Derived Models” (Frontiers in Cardiovascular Medicine, 2021).
“And” between values parts separate entries of the source, which are not always exact repeats. Equal values may be shown once. Read-outs that look alike come from different tables or passages of the source. Blank lines part the entries; values can stand above or below the compound they belong to.

Experiments:
[1] = tested on: hSC-CMs (Cor.4U Cardiomyocytes); assay: CardioExcyte 96 impedance and EFP recording (beating rate, base impedance); type: cell-based, human; conditions: for BR / Base Imp / activity at 0.03 µM / activity at 0.3 µM / activity at 3 µM / activity at 30 µM: vs baseline before drug (taken as 100%); for activity at 0.03 µM / activity at 0.3 µM / activity at 3 µM / activity at 30 µM: Homo sapiens, Cardiomyocyte
Description: Cor.4U® Cardiomyocytes (Ncardia, Netherlands) were cultured in 96-well plates at density of 25,000 – 30,000 cells per well. Cells were maintained at 5% CO2 and 37 °C for 4 days prior to experiments.
Functional monitoring of cardiomyocytes was done using CardioExcyte® 96 (Nanion technologies GmbH, Germany). Extracellular field potential (EFP) and impedance signals were recorded from hSC-CMs that formed monolayers in the wells of the NSP-96 plate. Beating Rate (BR, per minute) was calculated as the reciprocal of the inter-spike interval (ISI) in EFP signal. Impedance signals from spontaneously beating hSC-CMs were recorded with a sampling rate of 1 ms (1 kHz), and EFP data were collected at 0.1ms (10 kHz). Data acquisition was controlled by CardioExcyte® 96 Control software as previously described ([22]). The functional parameters recorded in each concentration of test items were compared to the base line values before drug addition (taken as 100%) to define fractional change.

[2] = tested on: hSC-CMs (Cor.4U Cardiomyocytes); assay: Apoptosis assay (CellEvent Caspase-3/7 Green, IncuCyte ZOOM kinetics over 24 h); type: cell-based, human; parameters: key to Caspase / Caspase MEAN: % of time-matched vehicle control (green object area); conditions: for Caspase / activity at 0.03 µM / activity at 0.3 µM / activity at 3 µM / activity at 30 µM: normalized to time-matched vehicle control; for activity at 0.03 µM / activity at 0.3 µM / activity at 3 µM / activity at 30 µM: Homo sapiens, Cardiomyocyte; for Caspase MEAN: DMSO = 100
Description: Cor.4U® Cardiomyocytes ([…], Netherlands) were cultured in 96-well plates at density of 25,000 - 30,000 cells per well. Cells were maintained at 5% CO2 and 37 °C for 4 days prior to experiments. […] The plates were incubated 2 h before compound treatment in the IncuCyte ZOOM (ESSEN BioScience, Ann Arbor, Michigan) to set a baseline before the 24 h compound treatment. […] Imaging was done using 10x microscope objective of the IncuCyteZOOM with four images per well-taken every 2 h in both phase-contrast and green fluorescence. The fluorescent nuclear signal of the apoptotic cells was separated from background with the integrated object counting algorithm, adjusted to cardiomyocytes, and the calculated total green object area per well (μm^2/well) plotted against time. Data were normalized to those of the time-matched vehicle control. Data were representative of at least three replicates per concentration.

[3] = tested on: hSC-CMs (Cor.4U Cardiomyocytes); assay: ATP assay (CellTiter-Glo Luminescent Cell Viability Assay); type: cell-based, human; conditions: for ATP: normalized to time-matched DMSO control
Description: Cor.4U® Cardiomyocytes (Ncardia, Netherlands) were cultured in 96-well plates at density of 25,000 – 30,000 cells per well. Cells were maintained at 5% CO2 and 37 °C for 4 days prior to experiments. The cell culture medium (Cor4U® Complete Culture Medium, cat# Ax-M-HC250E, Axiogenesis AG, Cologne, Germany) was changed every 24 h and was replaced by serum-free BMCC medium (cat# Ax-M-BMCC259, Axiogenesis AG, Cologne, Germany) 12 h prior to drug addition.
The CellTiter-Glo Luminescent Cell Viability Assay (cat# G7572, Promega, USA) was performed for quantification of the cellular ATP concentration according to manufacturer's instructions. Plates were shaken for 2 min in the dark, incubated at ambient temperature for 10 min before measuring luminescence (Integration time 0.1 seconds per well) with Luminescence Counter (Synergy H1, BioTek Instruments, Inc., Winooski, Vermont). The measured ATP concentration values were normalized to the time-matched DMSO controls. Data are representative of at least three replicates per concentration.

PI3K p110β = conditions: ref [23]–[25] (NVP-BEZ235), [27] (LY 294002), [28] (GDC-0941), [32] (TGX-221), [33] (CAL-101), [35] (CZC24832); read-out: Target IC50 p110β; cited from earlier work

SMILES: CCOC(=O)c1cnc2ccc(-c3cncc(NS(=O)(=O)c4ccccc4)c3)cn12 [HS-173]
BR ([1]; 0.03 µM, 2h): 105
Base Imp ([1]; 0.03 µM, 2h): 87
BR ([1]; 0.03 µM, 24h): 97
Base Imp ([1]; 0.03 µM, 24h): 87
BR ([1]; 0.1 µM, 2h): 93
Base Imp ([1]; 0.1 µM, 2h): 83
BR ([1]; 0.1 µM, 24h): 89
Base Imp ([1]; 0.1 µM, 24h): 85
BR ([1]; 0.3 µM, 2h): 85
Base Imp ([1]; 0.3 µM, 2h): 81
BR ([1]; 0.3 µM, 24h): 84
Base Imp ([1]; 0.3 µM, 24h): 72
BR ([1]; 1 µM, 2h): 86
Base Imp ([1]; 1 µM, 2h): 69
BR ([1]; 1 µM, 24h): 75
Base Imp ([1]; 1 µM, 24h): 67
Reduction of base impedance ([1]; hSC-CMs, 2 and 24 h): more than 20%
Reduction of beating rate ([1]; hSC-CMs, 2 and 24 h): more than 20%
Apoptosis (caspase-3/7 activation), result in words [2]: induced apoptosis in hSC-CMs with a fast onset
Caspase ([2]; 0.03 µM, 2h): 167
Caspase ([2]; 0.03 µM, 24h): 80
Caspase ([2]; 0.1 µM, 2h): 138
Caspase ([2]; 0.1 µM, 24h): 151
Caspase ([2]; 0.3 µM, 2h): 123
Caspase ([2]; 0.3 µM, 24h): 200
Caspase ([2]; 1 µM, 2h): 120
Caspase ([2]; 1 µM, 24h): 373
Time to reach the maximum number of apoptotic cells ([2]; hSC-CMs, monitored over 24 h): ≤ 12 h
ATP ([3]; 0.03 µM, 2h): 89
ATP ([3]; 0.03 µM, 24h): 98
ATP ([3]; 0.1 µM, 2h): 87
ATP ([3]; 0.1 µM, 24h): 99
ATP ([3]; 0.3 µM, 2h): 86
ATP ([3]; 0.3 µM, 24h): 90
ATP ([3]; 1 µM, 2h): 86
ATP ([3]; 1 µM, 24h): 83
Decrease of ATP level ([3]; hSC-CMs, after 24 h of incubation): 20–25%

Effect on cardiomyocyte function in 3D surface plots (beating rate, base impedance, ATP), in words ([1]; hSC-CMs, 2 and 24 h): pronounced effects
SMILES: Cn1c(=O)n(-c2ccc(C(C)(C)C#N)cc2)c2c3cc(-c4cnc5ccccc5c4)ccc3ncc21 [NVP-BEZ235, Dactolisib]
activity at 0.03 µM ([1]; 0.03 µM, 2h, read-out: BR): 99%
activity at 0.03 µM ([1]; 0.03 µM, 2h, read-out: Base Imp): 88%
activity at 0.03 µM ([1]; 0.03 µM, 24h, read-out: BR): 90%
activity at 0.03 µM ([1]; 0.03 µM, 24h, read-out: Base Imp): 85%
activity at 0.3 µM ([1]; 0.3 µM, 2h, read-out: BR): 73%
activity at 0.3 µM ([1]; 0.3 µM, 2h, read-out: Base Imp): 86%
activity at 0.3 µM ([1]; 0.3 µM, 24h, read-out: BR): 57%
activity at 0.3 µM ([1]; 0.3 µM, 24h, read-out: Base Imp): 75%
activity at 3 µM ([1]; 3 µM, 2h, read-out: BR): 39%
activity at 3 µM ([1]; 3 µM, 2h, read-out: Base Imp): 71%
activity at 3 µM ([1]; 3 µM, 24h, read-out: BR): 14%
activity at 3 µM ([1]; 3 µM, 24h, read-out: Base Imp): 52%
activity at 30 µM ([1]; 2h, read-out: BR): 19%
activity at 30 µM ([1]; 2h, read-out: Base Imp): 51%
activity at 30 µM ([1]; 24h, read-out: BR): 30%
activity at 30 µM ([1]; 24h, read-out: Base Imp): 45%
Reduction of base impedance ([1]; hSC-CMs, 2 and 24 h): more than 20%
Reduction of beating rate ([1]; hSC-CMs, 2 and 24 h): more than 20%
activity at 0.03 µM ([2]; 0.03 µM, 2h): 242%
activity at 0.03 µM ([2]; 0.03 µM, 24h): 188%
activity at 0.3 µM ([2]; 0.3 µM, 2h): 148%
activity at 0.3 µM ([2]; 0.3 µM, 24h): 320%
activity at 3 µM ([2]; 3 µM, 2h): 72%
activity at 3 µM ([2]; 3 µM, 24h): 228%
activity at 30 µM ([2]; 2h): 86%
activity at 30 µM ([2]; 24h): 355%
Apoptosis (caspase-3/7 activation), result in words ([2]; hSC-CMs, monitored over 24 h): induced apoptosis in hSC-CMs with a fast onset
Time to reach the maximum number of apoptotic cells ([2]; hSC-CMs, monitored over 24 h): ≤ 12 h

SMILES: CN[C@@H]1C[C@H]2O[C@@](C)([C@@H]1OC)n1c3ccccc3c3c4c(c5c6ccccc6n2c5c31)C(=O)NC4 [Staurosporine]
Caspase MEAN ([2]; 1 µM, Time 2.75): 85
Caspase MEAN ([2]; 1 µM, Time 4.75): 254
Caspase MEAN ([2]; 1 µM, Time 6.75): 1532
Caspase MEAN ([2]; 1 µM, Time 8.75): 3137
Caspase MEAN ([2]; 1 µM, Time 10.75): 4841
Caspase MEAN ([2]; 1 µM, Time 12.75): 5989
Caspase MEAN ([2]; 1 µM, Time 14.75): 7301
Caspase MEAN ([2]; 1 µM, Time 16.75): 7458
Caspase MEAN ([2]; 1 µM, Time 18.75): 8506
Caspase MEAN ([2]; 1 µM, Time 20.75): 7604
Caspase MEAN ([2]; 1 µM, Time 22.75): 7381
Caspase MEAN ([2]; 1 µM, Time 24.75): 7608
Caspase MEAN ([2]; 1 µM, Time 26.75): 7240

Effect on hSC-CMs function (base impedance and beating rate), in words [1]: did not have any effect
SMILES: Cc1cc(C(C)Nc2ccccc2)c2nc(N3CCOCC3)cc(=O)n2c1 (centres unmarked) [TGX-221]
BR ([1]; 0.1 µM, 2h): 98
Base Imp ([1]; 0.1 µM, 2h): 107
BR ([1]; 0.1 µM, 24h): 94
Base Imp ([1]; 0.1 µM, 24h): 106
BR ([1]; 0.3 µM, 2h): 93
Base Imp ([1]; 0.3 µM, 2h): 104
BR ([1]; 0.3 µM, 24h): 91
Base Imp ([1]; 0.3 µM, 24h): 100
BR ([1]; 1 µM, 2h): 94
Base Imp ([1]; 1 µM, 2h): 98
BR ([1]; 1 µM, 24h): 95
Base Imp ([1]; 1 µM, 24h): 97
BR ([1]; 3 µM, 2h): 95
Base Imp ([1]; 3 µM, 2h): 97
BR ([1]; 3 µM, 24h): 89
Base Imp ([1]; 3 µM, 24h): 98
Change in the hSC-CMs parameters (surface plots: beating rate, base impedance, ATP) ([1]; hSC-CMs, 2 and 24 h): below 20%
Apoptosis (caspase-3/7 activation), result in words [2]: no effect
Caspase ([2]; 0.1 µM, 2h): 104
Caspase ([2]; 0.1 µM, 24h): 87
Caspase ([2]; 0.3 µM, 2h): 112
Caspase ([2]; 0.3 µM, 24h): 95
Caspase ([2]; 1 µM, 2h): 87
Caspase ([2]; 1 µM, 24h): 92 and 92.1743
Caspase ([2]; 3 µM, 2h): 124
Caspase ([2]; 3 µM, 24h): 111 and 110.619
ATP ([3]; 0.1 µM, 2h): 105
ATP ([3]; 0.1 µM, 24h): 95
ATP ([3]; 0.3 µM, 2h): 100
ATP ([3]; 0.3 µM, 24h): 96
ATP ([3]; 1 µM, 2h): 97
ATP ([3]; 1 µM, 24h): 97
ATP ([3]; 3 µM, 2h): 104
ATP ([3]; 3 µM, 24h): 104
Effect on ATP level, in words ([3]; hSC-CMs, up to the highest test concentrations): did not have any effect
IC50 (PI3K p110β): 5 nM
